Data: patent US20250065246A1, “SOLVENT COMPOSITION FOR NATURAL MATERIAL EXTRACTION” (GS CALTEX CORPORATION, priority 2018, published 2025)

Key:
A. niger = assay: Evaluation of antibacterial property, minimum inhibitory concentration; assay type: cell-based
Protocol: (§1) To evaluate an antibacterial property of the solvent compositions for extracting a natural material in examples 2 and 3, and comparative examples 3 and 4, minimum inhibitory concentration (MIC; %) of a total of five microorganisms was measured. A lower minimum inhibitory concentration (%) may denote a more excellent antibacterial property.

E. coli = assay: as above; assay type: cell-based
Protocol: as §1

S. aureus = assay: as above; assay type: cell-based
Protocol: as §1

C. albicans = assay: as above; assay type: cell-based
Protocol: as §1

P. aeruginosa = assay: as above; assay type: cell-based
Protocol: as §1

skin = assay: Evaluation of skin irritation, patch test (PCPC Safety Evaluation Guidelines, ICDRG standard); assay type: in vivo, human; conditions: patch test on 32 people, 30 wt %
Protocol: To evaluate skin irritation caused by solvent compositions for extracting a natural material in example 1 and comparative examples 1, 2 and 3, a patch test was conducted on a total of 32 people. The solvent compositions for extracting a natural material in example 1 and comparative examples 1, 2 and 3 were all at a concentration of 30 wt %, and the patch test was performed under the PCPC Safety Evaluation Guidelines and the ICDRG standard.

Structure (SMILES) | A. niger (MIC %) (A. niger) [%] | E. coli (MIC %) (E. coli) [%] | S. aureus (MIC %) (S. aureus) [%] | C. albicans (MIC %) (C. albicans) [%] | P. aeruginosa (MIC %) (P. aeruginosa) [%] | Cases with skin irritation (skin) | Skin irritation category under ICDRG standard (skin) | Skin irritation index 30 minutes (skin) | Skin irritation index 24 hours (skin) | Skin irritation index 48 hours (skin) | Cases with skin irritation (skin; listed as comparative example 3)
CC(O)C(C)O (single isomer, unassigned) [Example 2, levo-2,3-butanediol] | 12.5 | 15 | 25 | 12.5 | 10 |  |  |  |  |  | 
CC(O)C(C)O (single isomer, unassigned) [Example 3, meso-2,3-butanediol] | 12.5 | 12.5 | 25 | 12.5 | 6.25 |  |  |  |  |  | 
OCCCO [Comparative example 2, 1,3-propanediol] |  |  |  |  |  | 0 | no skin irritation | 0.0 | 0.0 | 0.0 | 
CC(O)CCO (centres unmarked) [Comparative example 3, 1,3-butanediol] | 12.5 | 17.5 | 25 | 12.5 | 12.5 | 2 | minor skin irritation | 0.5 | 0.0 | 0.0 | two
OCCCO [Comparative example 4, 1,3-propanediol] | 25 | 22 | 25 | 25 | 12.5 |  |  |  |  |  | 
CC(O)C(C)O (centres unmarked) [Example 1, 2,3-butanediol] |  |  |  |  |  | 0 | no skin irritation | 0.0 | 0.0 | 0.0 | 
CC(O)C(C)O (centres unmarked) [compound 1, 2,3-butanediol] |  |  |  |  |  | 0 | no skin irritation | 0.0 | 0.0 | 0.0 | 
